From ChEMBL document CHEMBL4482310, “Inhibitors of grb2-associated binding protein 1 (gab1) and methods of treating cancer using the same” (2017) come the findings set out here.

Each structure is given as a SMILES string.

By Kd is commonly meant a measure of binding affinity in units of concentration. Usually inhibition stands for the change of the read-out against control, counted positive when it falls.

Data set [1] concerns the target T1, GRB2-associated-binding protein 1 (Homo sapiens, UniProt Q13480).
T1 sequence (Q13480 whole entry): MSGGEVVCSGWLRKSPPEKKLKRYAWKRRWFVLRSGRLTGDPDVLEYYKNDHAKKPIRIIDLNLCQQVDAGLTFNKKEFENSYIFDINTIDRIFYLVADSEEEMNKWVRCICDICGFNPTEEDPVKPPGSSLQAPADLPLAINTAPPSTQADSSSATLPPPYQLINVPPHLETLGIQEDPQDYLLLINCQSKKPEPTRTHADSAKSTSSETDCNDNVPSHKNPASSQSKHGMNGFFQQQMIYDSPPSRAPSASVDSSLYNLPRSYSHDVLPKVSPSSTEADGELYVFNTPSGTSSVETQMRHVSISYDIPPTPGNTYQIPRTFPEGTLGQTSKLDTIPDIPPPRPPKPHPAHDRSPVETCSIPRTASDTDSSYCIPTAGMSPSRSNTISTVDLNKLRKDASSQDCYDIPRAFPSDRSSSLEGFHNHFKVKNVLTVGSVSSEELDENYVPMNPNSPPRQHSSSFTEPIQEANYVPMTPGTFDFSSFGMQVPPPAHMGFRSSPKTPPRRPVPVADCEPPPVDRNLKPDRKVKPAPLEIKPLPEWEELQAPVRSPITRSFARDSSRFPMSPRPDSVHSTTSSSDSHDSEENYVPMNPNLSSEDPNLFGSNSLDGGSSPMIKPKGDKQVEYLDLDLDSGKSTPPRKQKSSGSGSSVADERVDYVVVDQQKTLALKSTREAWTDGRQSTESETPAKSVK
As to the kind of experiment: Binding affinity to recombinant human GAB1 PH domain expressed in Escherichia coli BL21 (DE3) by surface plasmon resonance assay. (In general: In SPR one partner is held on a chip, and binding of the other changes the refractive index at the surface.)

Data set [2] concerns the target T2, Insulin receptor substrate 1 (Homo sapiens) (UniProt P35568).
T2 sequence (whole entry): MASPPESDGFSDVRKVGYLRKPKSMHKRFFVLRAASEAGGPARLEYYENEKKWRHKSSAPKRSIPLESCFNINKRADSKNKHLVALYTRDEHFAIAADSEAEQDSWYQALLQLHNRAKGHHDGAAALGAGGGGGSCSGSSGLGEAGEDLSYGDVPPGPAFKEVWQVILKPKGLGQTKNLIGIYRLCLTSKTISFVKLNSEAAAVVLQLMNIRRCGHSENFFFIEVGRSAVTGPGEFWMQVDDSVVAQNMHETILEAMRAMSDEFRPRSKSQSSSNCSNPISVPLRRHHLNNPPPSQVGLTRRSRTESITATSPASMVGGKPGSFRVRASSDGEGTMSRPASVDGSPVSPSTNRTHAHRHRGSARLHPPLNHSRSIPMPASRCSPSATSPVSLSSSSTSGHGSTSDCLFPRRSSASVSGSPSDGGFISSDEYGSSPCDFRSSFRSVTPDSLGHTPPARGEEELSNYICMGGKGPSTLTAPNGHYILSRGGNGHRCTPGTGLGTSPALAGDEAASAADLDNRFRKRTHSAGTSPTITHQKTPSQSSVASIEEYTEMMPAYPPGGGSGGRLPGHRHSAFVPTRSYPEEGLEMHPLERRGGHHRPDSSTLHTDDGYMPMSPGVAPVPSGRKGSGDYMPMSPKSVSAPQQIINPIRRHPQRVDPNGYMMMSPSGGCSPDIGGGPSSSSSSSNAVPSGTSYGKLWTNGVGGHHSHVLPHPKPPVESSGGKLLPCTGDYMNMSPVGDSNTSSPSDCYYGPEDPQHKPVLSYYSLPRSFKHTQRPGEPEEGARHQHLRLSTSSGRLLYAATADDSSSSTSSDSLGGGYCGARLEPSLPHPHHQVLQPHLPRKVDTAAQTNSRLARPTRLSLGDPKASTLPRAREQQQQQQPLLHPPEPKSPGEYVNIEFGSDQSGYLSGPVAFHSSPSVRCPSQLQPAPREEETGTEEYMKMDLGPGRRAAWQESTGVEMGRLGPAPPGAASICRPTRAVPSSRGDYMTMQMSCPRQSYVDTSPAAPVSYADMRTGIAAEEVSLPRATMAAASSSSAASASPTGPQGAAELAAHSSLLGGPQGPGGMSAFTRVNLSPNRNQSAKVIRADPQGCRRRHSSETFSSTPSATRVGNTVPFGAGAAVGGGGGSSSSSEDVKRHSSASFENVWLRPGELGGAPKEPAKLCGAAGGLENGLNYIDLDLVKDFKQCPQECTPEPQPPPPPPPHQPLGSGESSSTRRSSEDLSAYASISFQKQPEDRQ
Description: Inhibition of HGF-induced IRS1 phosphorylation in human T47D cells assessed as pSer312 IRS1/total-IRS1 ratio level at 20 uM pre-incubated for 4 hrs before stimulation with HGF for 20 mins (reference value: 100 +/- 0.02%). The class given is cell-based. Set-up: scale not given: the % may be the effect or the level left.

In data set [3] the target is T3, Insulin receptor substrate 1 (Homo sapiens, UniProt P35568).
T3 sequence (P35568 whole entry): T2 sequence (whole entry)
Description: Binding affinity to recombinant human IRS1 PH domain expressed in Escherichia coli BL21 (DE3) by surface plasmon resonance assay.

Data set [4] deals with T47D. As to the kind of experiment: Cytotoxicity in human T47D cells assessed as reduction in cell viability incubated for 4 days by MTT assay. It counts as functional, cell-based.
The subject of data set [5] is MCF-10A. As to the kind of experiment: Cytotoxicity in human MCF10A cells assessed as reduction in cell viability at 100 uM incubated for 4 days by MTT assay. The class given is cell-based. As to conditions: 96 h; call rule not given here. Background: Tetrazolium assays rely on reduction of a dye to a coloured formazan, in cell work by metabolically active cells.
Data set [6] concerns MDA-MB-231. Description: Cytotoxicity in human MDA-MB-231 cells assessed as reduction in cell viability incubated for 4 days by MTT assay. It counts as functional, cell-based.
Data set [7] has as its system MCF-10A. Description: Cytotoxicity in human MCF10A cells assessed as reduction in cell viability incubated for 4 days by MTT assay. It counts as cell-based. As to conditions: 96 h.
The target of data set [8] is T4, GRB2-associated-binding protein 1 (Homo sapiens) (UniProt Q13480).
T4 sequence (whole entry): T1 sequence (Q13480 whole entry)
Description: Inhibition of HGF-stimulated GAB1 Y627 phosphorylation in human T47D cells at 20 uM pre-incubated for 4 hrs before stimulation with HGF for 20 mins. It counts as cell-based.

On to `Cc1onc(-c2ccccc2)c1-c1nc(CSc2nc3ccccc3[nH]2)no1`, for which the Kd result in data set [1] is “Not Active”; in data set [3] (read-out: Kd), 120 nM. Further, the Activity in data set [2] was determined as 31.1%.
Consider `CCc1ccc(C(=O)OC)cc1CSc1nnc(-c2ccc(C(F)(F)F)cc2)n1Cc1ccoc1`, for which the Activity in data set [2] stood at 64.4%.
Take `CCCCCCCCCCCCc1ccc(S(=O)(=O)Nc2nncs2)cc1`: the Kd in data set [1] (read-out: Kd) came to 1330 nM. Also, the Activity in data set [2] amounted to 61.3%.
`Cc1nc(-c2ccc(S(=O)(=O)N3CCN(C4c5ccccc5-c5ccccc54)CC3)s2)cs1`: in data set [2], the Activity worked out at 98.7%.
On to `COc1cc(NS(=O)(=O)c2ccc(NS(=O)(=O)c3c(C)noc3C)cc2)nc(OC)n1`, for which the IC50 entry in data set [4] and in data set [6] was “Not Active” throughout. Also, the figures for the Activity entry in data set [5] and in data set [2] were “Non-Toxic” and 91.7%, respectively. Besides, the Kd result in data set [1] and in data set [3] was “Not Active” throughout.
`O=C(O)c1ccccc1C(=O)Nc1ccccc1SCCS(=O)(=O)c1ccc(Cl)cc1`: the figures for the Activity result in data set [5] and in data set [2] were “Non-Toxic” and 75.6%, respectively. Moreover, the IC50 result in data set [6] is on record as “Not Active”. The Kd result in data set [1] and in data set [3] was “Not Active” in each case.
Turning to `O=S(=O)(NCc1csc2ccc(Cl)cc12)c1cc(S(=O)(=O)c2ccccc2)cs1`, the results for the Activity entry in data set [7] and in data set [2] were “Non-Toxic” and 46.5%, respectively. The Kd result in data set [3] is given as “Not Active”.
Consider `CCCCCCCCCCCCc1ccc(S(=O)(=O)Nc2nnc(CC(=O)O)s2)cc1`, for which, in data set [2], the Activity is 69%. Further, the Kd in data set [3] (read-out: Kd) stood at 50 nM.
Take `O=S(=O)(NCc1csc(-c2cccs2)n1)c1ccc(N2CCOCC2)nc1`: the IC50 entry in data set [6] is on record as “Not Active”. Also, the Kd entry in data set [1] was “Not Active”; in data set [3] (read-out: Kd), 16200 nM. Also, the Activity in data set [2] was 101%.
As to `Cc1noc(C)c1NC(=O)NCc1csc(-c2cccs2)n1`, the Kd entry in data set [1] and in data set [3] was “Not Active” throughout. Besides, in data set [2], the Activity was found to be 100%.
For the compound `CS(=O)(=O)CCSc1ncccc1C(=O)Sc1ccc(Cl)cc1Cl`, the figures for the Activity entry in data set [7] and in data set [2] were “Non-Toxic” and 79.7%, respectively. The Kd in data set [1] (read-out: Kd) worked out at 42300 nM; in data set [3] (read-out: Kd), 1600 nM.
For the compound `CS(=O)(=NS(=O)(=O)c1ccc(-c2ccccn2)s1)c1ccc(Cl)cc1` (stereo unspecified), the IC50 result in data set [4] and in data set [6] was “Not Active” throughout. Besides, the Kd entry in data set [1] and in data set [3] was “Not Active” each time. Also, the Activity in data set [2] was determined as 102%.
`CCCCCCCCCCCCc1ccc(S(=O)(=O)Nc2nnc(CC(=O)OCC)s2)cc1`: the inhibition in data set [8] is 96%. Moreover, the Activity result is “Non-Toxic” in data set [7] and 60.6% in data set [2]. Also, the Kd in data set [1] (read-out: Kd) is 900 nM; in data set [3] (read-out: Kd), 150 nM.
On to `Cn1cnc(S(=O)(=O)Nc2ccccc2SCCS(=O)(=O)c2ccc(Cl)cc2)c1`, for which the Kd in data set [1] (read-out: Kd) was determined as 2100 nM; in data set [3] (read-out: Kd) it was 16400 nM. In data set [2], the Activity was 83.2%.
Take `O=c1[nH]nc(SCc2csc(-c3ccccc3)n2)n1Cc1ccco1`: the values for the Activity entry in data set [7] and in data set [2] were “Non-Toxic” and 40.7%, respectively. Also, the Kd in data set [1] (read-out: Kd) is 2200 nM; in data set [3], “Not Active”.
For `Cc1nnc(NS(=O)(=O)c2ccc(NS(=O)(=O)c3ccc4ccccc4c3)cc2)s1`, the Kd result in data set [1] and in data set [3] was “Not Active” throughout. Moreover, in data set [2], the Activity stood at 89.9%.
Compound `CCCCCCCCCCCCCCCCCCOC[C@H](COP(=O)(O)O[C@H]1[C@H](O)[C@@H](O)[C@H](O)C[C@H]1O)OC` gave an inhibition in data set [8] of 72%. Besides, in data set [2], the Activity came to 116%.
As to `Cn1c(Cc2ccsc2)nnc1SCC(=O)Nc1cc(Cl)cc(Cl)c1`, the IC50 result in data set [4] and in data set [6] was “Not Active” in each case. For the same compound, the Kd result in data set [1] and in data set [3] was “Not Active” each time. For the same compound, the Activity in data set [2] is 84.8%.
For `CCCCCCCCCCCCc1ccc(S(=O)(=O)Nc2nnc(S(N)(=O)=O)s2)cc1`, the Activity in data set [2] was 115%. Moreover, the Kd result in data set [3] is given as “Not Active”.
Consider `Cc1cc2ncc(-c3cnc(SCCS(=O)(=O)c4ccc(Cl)cc4)nc3)c(C)n2n1`, for which the Kd result in data set [1] and in data set [3] was “Not Active” each time. The Activity in data set [2] was 98.2%.
Regarding `CCCCCCCCCCCCc1ccc(S(=O)(=O)Nc2nnc(C(=O)OCC)s2)cc1`, in data set [8], the inhibition came out at 82%. The Activity entry in data set [7] was “Non-Toxic”; in data set [2], 78.4%. Also, the Kd in data set [1] (read-out: Kd) turned out to be 680 nM; in data set [3] (read-out: Kd), 50 nM.
